From ChEMBL document CHEMBL4414621, “Thiohydantoin and Hydantoin Derivatives from the Roots of Armoracia rusticana and Their Neurotrophic and Anti-neuroinflammatory Activities” (J Nat Prod, 2019)

Experiments:
[1] = Cytotoxicity against rat C6 cells assessed as cell viability at 20 uM incubated for 24 hrs by MTT assay relative to control; format: cell-based; conditions: read-out: Activity
[2] = system: C6; test: Neuroprotective activity in rat C6 cells assessed as NGF secretion at 20 uM incubated for 24 hrs by ELISA relative to control; format: functional
[3] = system: BV-2; test: Antineuroinflammatory activity against mouse BV2 cells assessed as inhibition in LPS-induced NO production preincubated for 30 mins followed b LPS addition and measured after 24 hr by griess reagent based assay; format: functional, cell-based

Row | IC50 [3] [µM] | SMILES | viability at 24 h, 20 µM [1] [%] | Activity [2] [%]
1 | – | O=C1C2CCCN2C(=S)N1Cc1ccccc1 (stereo not drawn) | 109 | 105.88
2 | 32.6 | NC(=O)NCCc1ccccc1 | 107 | 105.82
3 | – | C=CCN1C(=O)[C@]2(O)CCCN2C1=S | 106 | 93.41
4 | – | O=C1N(CCc2ccccc2)C(=S)N2CCC[C@@]12O | 112 | 75.08
5 | – | C=CCN1C(=O)N2CCC[C@@]2(O)C1=O | 97.3 | 110.66
6 | – | O=C1[C@@H]2CCCN2C(=O)N1CCc1ccccc1 | 111 | 111.26
7 | – | C=CCN1C(=O)[C@@]2(O)CCCN2C1=S | 114 | 153.59
8 | – | CSC1=NC[C@]2(S1)C(=O)Nc1ccccc12 | 88.2 | 96.3
9 | – | O=C1N(CCc2ccccc2)C(=O)[C@]2(O)CCCN12 | 91.2 | 98.7
10 | – | O=C1N(CCc2ccccc2)C(=O)[C@@]2(O)CCCN12 | 106 | 115.13
11 | – | O=C1N(CCc2ccccc2)C(=S)N2CCC[C@]12O | 108 | 100.68
12 | – | C=CCN1C(=O)N2CCC[C@]2(O)C1=O | 100 | 141.99
13 | – | CCCCC/C=C/C(=O)CCc1ccc(O)c(OC)c1 [SHOGAOL] | 111 | 140.69
14 | 21.9 | CNC(=N)NCCC[C@H](N)C(=O)O [TILARGININE] | – | –
